Measured values from US11560370B1, “5-membered heteroaryl carboxamide compounds for treatment of HBV” (Assembly Biosciences, Inc., priority 2018, dated 2023).
Where two headings read alike, the source gives them in different places.

System: HBV
Assay: Viral production from HepAD38 cells, viral load by qPCR of HBV core sequence
Type: cell-based
Settings: 5 days, supernatant HBV DNA by qPCR, read-out: Viral Load EC50 Activity range
In short: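 HepAD38 cells in tetracycline-free medium with 2% FBS, 50,000 cells/well, treated 5 days at 37° C. with compound from 10 μM top concentration (1% DMSO final). Supernatant HBV DNA measured by TaqMan qPCR of core sequence against standards, versus DMSO wells; viability by CellTiter-Glo; EC50/CC50 by four-parameter fit.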

[1] = Hepatitis B virus, HePAD38, 120 h

Structure (SMILES)	EC50	EC50 [1]
Cn1nc(C2CC3COC(=O)CC3C2)c(C(=O)Nc2ccc(F)c(Cl)c2)c1N (stereo not shown) [AIA-275]	< 100 nM	–
COc1cccc([C@H]2CC[C@H](c3nn(C)c(N)c3C(=O)Nc3ccc(F)c(Cl)c3)C2)c1 [AIA-276C]	< 100 nM	–
COc1cccc(C2CCC(c3nn(C)c(N)c3C(=O)Nc3ccc(F)c(Cl)c3)C2)c1 (stereo not shown) [AIA-276]	< 100 nM	–
Cn1nc(C2CCC(c3ccccc3)C2)c(C(=O)Nc2cc(F)c(F)c(Br)c2)c1N (stereo not shown) [AIA-278, 5-Amino-N-(3-bromo-4,5-difluorophenyl)-1-methyl-3-(3-phenylcyclopentyl)-1H-pyrazole-4-carboxamide]	–	100 to 500 nM
Cn1nc(C2CCC(c3ccccc3)C2)c(C(=O)Nc2ccc(F)c(C#N)c2)c1N (stereo not shown) [AIA-279, 5-Amino-N-(3-cyano-4-fluorophenyl)-1-methyl-3-(3-phenylcyclopentyl)-1H-pyrazole-4-carboxamide]	–	< 100 nM
Cn1cnc(C2CCC(c3nn(C)c(N)c3C(=O)Nc3ccc(F)c(Cl)c3)C2)c1 (stereo not shown) [AIA-280, 5-Amino-N-(3-chloro-4-fluoro-phenyl)-1-methyl-3-[3-(1-methylimidazol-4-yl)cyclopentyl]pyrazole-4-carboxamide]	–	100 to 500 nM
Cn1nc(C2CCC(c3ccc(F)cc3)C2)c(C(=O)Nc2ccc(F)c(Cl)c2)c1N (stereo not shown) [AIA-281, 5-Amino-N-(3-chloro-4-fluorophenyl)-3-(3-(4-fluorophenyl)cyclopentyl)-1-methyl-1H-pyrazole-4-carboxamide]	–	< 100 nM
Cn1nc(C2CC3CC(O)(CSCCO)CC3C2)c(C(=O)Nc2ccc(F)c(Cl)c2)c1N (stereo not shown) [AIA-283]	< 100 nM	–
Cn1nc(C2CC3CC(O)(CSCCN4CCOCC4)CC3C2)c(C(=O)Nc2ccc(F)c(Cl)c2)c1N (stereo not shown) [AIA-284]	< 100 nM	–
COC1CC2CC(c3nn(C)c(N)c3C(=O)Nc3ccc(F)c(Cl)c3)CC2C1 (stereo not shown) [AIA-285]	< 100 nM	–
CC(=O)NC1CC2CC(c3nn(C)c(N)c3C(=O)Nc3ccc(F)c(Cl)c3)CC2C1 (stereo not shown) [AIA-288]	< 100 nM	–
Cn1nc(C2CC3CC4(CC3C2)OCCO4)c(C(=O)Nc2ccc(F)c(Cl)c2)c1N (stereo not shown) [AIA-290]	< 100 nM	–
Cn1nc(C2CCC(c3ccc(OC(F)(F)F)cc3)C2)c(C(=O)Nc2ccc(F)c(Cl)c2)c1N (stereo not shown) [AIA-292, 5-Amino-N-(3-chloro-4-fluorophenyl)-1-methyl-3-(3-(4-(trifluoromethoxy)phenyl)cyclopentyl)-1H-pyrazole-4-carboxamide]	–	500 to 10000 nM
CN(C)c1ccc(C2CCC(c3nn(C)c(N)c3C(=O)Nc3ccc(F)c(Cl)c3)C2)cc1 (stereo not shown) [AIA-293, 5-Amino-N-(3-chloro-4-fluorophenyl)-3-(3-(4-(dimethylamino)phenyl)cyclopentyl)-1-methyl-1H-pyrazole-4-carboxamide]	–	< 100 nM
CC(=O)Nc1ccc(C2CCC(c3nn(C)c(N)c3C(=O)Nc3ccc(F)c(Cl)c3)C2)cc1 (stereo not shown) [AIA-294, 3-(3-(4-Acetamidophenyl)cyclopentyl)-5-amino-N-(3-chloro-4-fluorophenyl)-1-methyl-1H-pyrazole-4-carboxamide]	–	< 100 nM
CC(C)Oc1ccc(C2CCC(c3nn(C)c(N)c3C(=O)Nc3ccc(F)c(Cl)c3)C2)cc1 (stereo not shown) [AIA-296, 5-Amino-N-(3-chloro-4-fluorophenyl)-3-(3-(4-isopropoxyphenyl)cyclopentyl)-1-methyl-1H-pyrazole-4-carboxamide]	–	< 100 nM
COCCOc1ccc(C2CCC(c3nn(C)c(N)c3C(=O)Nc3ccc(F)c(Cl)c3)C2)cc1 (stereo not shown) [AIA-297, 5-Amino-N-(3-chloro-4-fluorophenyl)-3-(3-(4-(2-methoxyethoxy)phenyl)cyclopentyl)-1-methyl-1H-pyrazole-4-carboxamide]	–	< 100 nM

Structure (SMILES)	EC50	EC50 [1]
CS(=O)(=O)CC1(O)CC2CC(c3n[nH]c(N)c3C(=O)Nc3ccc(F)c(Cl)c3)CC2C1 (stereo not shown) [AIA-310]	< 100 nM	–
Cn1nc(C2CC3CC(O)(CS(=O)(=O)CCCN4CCNC(=O)C4)CC3C2)c(C(=O)Nc2ccc(F)c(Cl)c2)c1N (stereo not shown) [AIA-350, 5-Amino-N-(3-chloro-4-fluorophenyl)-3-(5-hydroxy-5-(((3-(3-oxopiperazin-1-yl)propyl)sulfonyl)methyl)octahydropentalen-2-yl)-1-methyl-1H-pyrazole-4-carboxamide]	–	500 to 10000 nM
Cn1nc([C@@H]2CC[C@@H](c3cnc(C(F)(F)F)s3)C2)c(C(=O)Nc2ccc(F)c(Cl)c2)c1N [AIA-354, 5-Amino-N-(3-chloro-4-fluorophenyl)-1-methyl-3-((1R,3R)-3-(2-(trifluoromethyl)thiazol-5-yl)cyclopentyl)-1H-pyrazole-4-carboxamide]	–	500 to 10000 nM
Cn1nc(C2CCC(c3csc(C(F)(F)F)n3)C2)c(C(=O)Nc2ccc(F)c(Cl)c2)c1N (stereo not shown) [AIA-355, 5-Amino-N-(3-chloro-4-fluorophenyl)-1-methyl-3-(3-(2-(trifluoromethyl)thiazol-4-yl)cyclopentyl)-1H-pyrazole-4-carboxamide]	–	500 to 10000 nM
Cn1nc(C2CC3CC(O)(CN4CCOCC4)CC3C2)c(C(=O)Nc2ccc(F)c(Cl)c2)c1N (stereo not shown) [AIA-364-1, 5-Amin o-N-(3-chloro-4-fluorophenyl)-3-(5-hydroxy-5-(morpholinomethyl)octahydropentalen-2-yl)-1-methyl-1H-pyrazole-4-carboxamide]	–	500 to 10000 nM
COc1cc(-c2cn(C)cn2)ccc1C1CCC(c2nn(C)c(N)c2C(=O)Nc2ccc(F)c(Cl)c2)C1 (stereo not shown) [AIA-365-1, 5-Amino-N-(3-chloro-4-fluorophenyl)-3-(3-(2-methoxy-4-(1-methyl-1H-imidazol-4-yl)phenyl)cyclopentyl)-1-methyl-1H-pyrazole-4-carboxamide]	–	100 to 500 nM
COc1cc(-c2c[nH]cn2)ccc1C1CCC(c2nn(C)c(N)c2C(=O)Nc2ccc(F)c(Cl)c2)C1 (stereo not shown) [AIA-366-1, 3-(3-(4-(1H-Imidazol-4-yl)-2-methoxyphenyl)cyclopentyl)-5-amino-N-(3-chloro-4-fluorophenyl)-1-methyl-1H-pyrazole-4-carboxamide]	–	100 to 500 nM
COc1cc(-c2cnn(C)c2)ccc1C1CCC(c2nn(C)c(N)c2C(=O)Nc2ccc(F)c(Cl)c2)C1 (stereo not shown) [AIA-369, 5-Amino-N-(3-chloro-4-fluorophenyl)-3-(3-(2-methoxy-4-(1-methyl-1H-pyrazol-4-yl)phenyl)cyclopentyl)-1-methyl-1H-pyrazole-4-carboxamide]	–	100 to 500 nM
COc1cc(-c2nccs2)ccc1C1CCC(c2nn(C)c(N)c2C(=O)Nc2ccc(F)c(Cl)c2)C1 (stereo not shown) [AIA-371, 5-Amino-N-(3-chloro-4-fluorophenyl)-3-(3-(2-methoxy-4-(thiazol-2-yl)phenyl)cyclopentyl)-1-methyl-1H-pyrazole-4-carboxamide]	–	500 to 10000 nM
COc1cc(-c2cscn2)ccc1C1CCC(c2nn(C)c(N)c2C(=O)Nc2ccc(F)c(Cl)c2)C1 (stereo not shown) [AIA-372, 5-Amino-N-(3-chloro-4-fluorophenyl)-3-(3-(2-methoxy-4-(thiazol-4-yl)phenyl)cyclopentyl)-1-methyl-1H-pyrazole-4-carboxamide]	–	< 100 nM
COc1cc(C(=O)NCCS(C)(=O)=O)ccc1C1CCC(c2nn(C)c(N)c2C(=O)Nc2ccc(F)c(Cl)c2)C1 (stereo not shown) [AIA-387-1]	–	100 to 500 nM
COc1cc(C(=O)NCCS(C)(=O)=O)ccc1C1CCC(c2nn(C)c(N)c2C(=O)Nc2ccc(F)c(Cl)c2)C1 (stereo not shown) [AIA-387-2, 5-Amino-N-(3-chloro-4-fluorophenyl)-3-(3-(2-methoxy-4-((2-(methylsulfonyl)ethyl)carbamoyl)phenyl)cyclopentyl)-1-methyl-1H-pyrazole-4-carboxamide]	< 100 nM	–
COc1cc(C(=O)NCCN)ccc1C1CCC(c2nn(C)c(N)c2C(=O)Nc2ccc(F)c(Cl)c2)C1 (stereo not shown) [AIA-388, 5-Amino-3-(3-(4-((2-aminoethyl)carbamoyl)-2-methoxyphenyl)cyclopentyl)-N-(3-chloro-4-fluorophenyl)-1-methyl-1H-pyrazole-4-carboxamide]	–	100 to 500 nM
Cn1cc(C(=O)Nc2ccc(F)c(Cl)c2)c(C2CC3CC(=O)CC3C2)n1 (stereo not shown) [AIA-394]	500 to 10000 nM	–
Cn1cc(C(=O)Nc2ccc(F)c(Cl)c2)c(C2CC3CC(O)(CS(C)(=O)=O)CC3C2)n1 (stereo not shown) [AIA-397]	500 to 10000 nM	–
Cn1nc(C2CCC(c3cccnc3)C2)c(C(=O)Nc2ccc(F)c(Cl)c2)c1N (stereo not shown) [CP-AIA-270, 5-Amino-N-(3-chloro-4-fluorophenyl)-1-methyl-3-(3-(pyridin-3-yl)cyclopentyl)-1H-pyrazole-4-carboxamide]	–	< 100 nM
Cn1nc(C2CC3CC4(CNC(=O)C4)CC3C2)c(C(=O)Nc2ccc(F)c(Cl)c2)c1N (stereo not shown) [HBV-AIA-039]	< 100 nM	–
